Laboratory results: US8445539B2, “Alpha-aminoamide derivatives useful in the treatment of psychiatric disorders” (priority 2007, dated 2013)

System: MK-801-induced PPI disruption
Experiment: Prepulse inhibition of startle with disruption by MK-801
Assay type: in vivo, Wistar rats
Details: pretreatment vehicle, treatment MK-801 0.2 mg/kg i.p., mean ± SEM
Excerpt: Prepulse inhibition (PPI) is a cross-species phenomenon (i.e., it is present in mammals ranging from mice to humans), yet it is relatively impaired among schizophrenic patients. The PPI procedure is used to assess the subject's ability to “gate” or filter environmental information. In the acoustic (startle model) of sensorimotor gating a weak acoustic stimulus (prepulse) decrease the reflexive flinching response (startle) produced by a second, more intense, stimulus (the pulse). Drugs like dizocilpine (MK-801) or amphetamine disrupt PPI and represent an animal model of schizophrenia; antipsychotic drugs are able to prevent PPI deficit. The test is quite useful to screen potential antipsychotic drugs.
Methods: Male Wistar rats, weighing 200-300 g were used. Apparatus: All startle and PPI testing has been performed in four startle chambers. Each ventilated illuminated and sound proof chamber contained a clear non-restrictive Plexiglas cylinder resting on a platform. A high-frequency loudspeaker inside the chamber produced both a continuous background noise of 70 dB and the various acoustic stimuli. Vibrations of the Plexiglas cylinder caused by the whole-body startle response of the animal were transduced into analogue signals by a piezoelectric unit attached to the platform. These signals were then digitized and stored by a computer. Sixty-five readings were taken at 1-ms intervals starting at stimulus onset, and the average amplitude was used to determine the acoustic startle response. Sound levels is given in dB.
Prepulse inhibition session: After 5 min of habituation (background white noise, 70 dB), two types of acoustic stimuli were used: acoustic stimulus alone (120 dB, 40 ms) or the stimulus proceeded by a prepulse (76, 79, 82 dB, 40 ms) applied 100 ms before the stimulus. During each experimental session 20 trials of each type were presented with interstimulus interval of 20 s. The amplitudes were averaged for each individual animal, separately for both types of trials (stimulus alone or stimulus preceded by the prepulse). The degree of prepulse inhibition was shown as a percentage score (% PPI) calculated as […] a difference between the amplitude of the pulse-alone (P) and the amplitude of the prepulse+pulse trials (PP+P), divided by the amplitude of the pulse-alone trials and multiplied by 100. […] Substances and treatments: MK-801 0.2 mg/kg was dissolved in saline and was given i.p. In each experiment, […] were assigned to receive either compounds of the disclosure or vehicle and were tested in the PPI session using a between-subjects design. The order of drug treatment for the first experiment was test-compound, followed by MK-801; for the second experiment rats received test-compound and then amphetamine. Statistical Analysis: Multiple ANOVA was conducted followed by Dunnett's post hoc test.

SMILES: C[C@]12N[C@H](Cc3ccccc31)c1ccccc12 [MK-801, reference compound]
- Percentage of inhibition (% PPI): 9.07 ± 0.81 %
- Acoustic tone alone (startle amplitude): 40.50 ± 1.96
- Startle amplitude on prepulse + pulse trials (startle amplitude): 37.00 ± 2.11
